Where a SMILES comes first, the peptide text is derived from it. The star is where a group is joined. Cbz = O=C(OCc1ccccc1)*; CH2Cl = ClC*
Experiments:
[1] = target: T1, Papain (Carica papaya, UniProt P00784); assay: Papain inhibition, Ki by Dixon plot (Table PKC1); format: biochemical; conditions: 0.05M Tris-HCl pH 7.5, 2 mM EDTA, 5 mM cysteine, 1% DMSO, 25° C., substrate Nα-Benzoyl-Arg-AMC; read-out: Ki P (Papain)
T1 sequence (P00784 134-345): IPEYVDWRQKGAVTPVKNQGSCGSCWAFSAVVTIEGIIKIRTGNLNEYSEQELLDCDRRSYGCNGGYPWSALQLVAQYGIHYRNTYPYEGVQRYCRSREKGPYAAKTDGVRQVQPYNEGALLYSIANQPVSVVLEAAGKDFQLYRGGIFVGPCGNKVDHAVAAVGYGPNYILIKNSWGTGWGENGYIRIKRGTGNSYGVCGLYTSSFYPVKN
Description: (§1) Various concentrations of inhibitors in dimethylsulfoxide (DMSO) were added to the assay mixture, which contained buffer and substrate. The reaction was started by the addition of the enzyme and the hydrolysis rates were followed spectrophotometrically or fluorimetrically. 88 mM KH2 PO4, 12 mM Na2 HPO4, 1.33 mM EDTA, 2.7 mM cysteine, pH 6.0 was used as a buffer for cathepsin B; and 20 mM Hepes, 10 mM CaCl2, 10 mM β-mercaptoethanol, pH 7.2 buffer was utilized for calpain I and calpain II.
(§2) All peptide thioester hydrolysis rates were measured with assay mixtures containing 4,4'-dithiodipyridine [e324=19800 M-1 cm-1; Grasetti & Murray, Arch. Biochem. Biophys. 119, pp 41-49 (1967)]. Papain was assayed with Bz-Arg-AMC or Bz-Arg-NA [Kanaoka et al., Chem. Pharm. Bull. 25, 3126-3128 (1977)], and the AMC (7-amino-4-methylcoumarin) release was followed fluorimetrically (excitation at 380 nm, and emission at 460 nm). Cathepsin B was assayed with Z-Arg-Arg-AFC [Barrett and Kirschke, Methods Enzymol. 80, 535-561 (1981)], and the AFC (7-amino-4-trifluoromethylcoumarin) release was followed fluorimetrically (excitation at 400 nm, and emission at 505 nm). Calpain I from human erythrocytes and calpain II from rabbit were assayed using Suc-Leu-Tyr-AMC [Sasaki et al., J. Biol. Chem. 259, 12489-12494 (1984), hereby incorporated by reference], and the AMC (7-amino-4-methylcoumarin) release was followed fluorimetrically (excitation at 380 nm, and emission at 460 nm). Enzymatic hydrolysis rates were measured at various substrate and inhibitor concentrations, and Ki values were determined by Dixon plot.
The inhibition constants for papain shown in Table PKC1 were measured in 0.05M Tris-HCl, pH 7.5 buffer, containing 2 mM EDTA, 5 mM cysteine (freshly prepared), 1% DMSO, at 25° C., using N^α -Benzoyl-Arg-AMC as a substrate, except that those values of inhibition constants for papain marked with an "e" in Table PKC1 were measured in 50 mM Tris-HCl, pH 7.5 buffer, containing 20 mM EDTA, 5 mM cysteine, 9% DMSO, at 25° C., using N^α -Benzoyl-Arg-NA as a substrate.

[2] = target: Cathepsin B (Bos taurus, UniProt P07688); assay: Cathepsin B inhibition, Z-Arg-Arg-AFC (Table PKC1); format: biochemical; conditions: pH 6.0 phosphate buffer, substrate Z-Arg-Arg-AFC; read-out: Ki CB (Cathepsin B)
Description: as §1, §2

[3] = target: T2, Calpain I from human erythrocytes (Homo sapiens, UniProt P07384); assay: Calpain I inhibition, Suc-Leu-Tyr-AMC (Table PKC1); format: biochemical; conditions: 20 mM Hepes, 10 mM CaCl2, 10 mM β-mercaptoethanol, pH 7.2; read-out: Ki CI (Calpain I)
T2 construct: Calpain I from human erythrocytes and calpain II from rabbit were assayed using Suc-Leu-Tyr-AMC; from tissue; host or cells: human erythrocytes
T2 sequence (P07384 1-714): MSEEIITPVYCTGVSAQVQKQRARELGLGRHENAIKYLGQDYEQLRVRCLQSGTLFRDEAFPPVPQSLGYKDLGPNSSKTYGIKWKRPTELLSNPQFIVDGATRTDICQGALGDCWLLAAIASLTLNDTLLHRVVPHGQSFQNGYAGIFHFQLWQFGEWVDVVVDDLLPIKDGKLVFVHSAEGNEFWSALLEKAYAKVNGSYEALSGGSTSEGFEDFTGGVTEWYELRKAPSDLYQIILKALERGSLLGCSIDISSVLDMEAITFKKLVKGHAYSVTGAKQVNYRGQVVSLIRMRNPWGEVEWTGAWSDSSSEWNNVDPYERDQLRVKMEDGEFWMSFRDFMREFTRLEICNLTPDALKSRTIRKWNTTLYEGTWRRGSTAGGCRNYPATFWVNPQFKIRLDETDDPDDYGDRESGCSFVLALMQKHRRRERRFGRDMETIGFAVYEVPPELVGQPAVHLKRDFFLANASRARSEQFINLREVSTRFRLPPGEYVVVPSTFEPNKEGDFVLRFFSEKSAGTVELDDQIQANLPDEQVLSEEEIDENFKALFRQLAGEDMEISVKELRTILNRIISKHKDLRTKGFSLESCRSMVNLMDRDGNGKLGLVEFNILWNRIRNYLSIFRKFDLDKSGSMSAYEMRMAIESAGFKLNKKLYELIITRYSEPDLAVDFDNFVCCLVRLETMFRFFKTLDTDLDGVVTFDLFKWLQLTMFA
T2 sequence (P04632 1-268 partner): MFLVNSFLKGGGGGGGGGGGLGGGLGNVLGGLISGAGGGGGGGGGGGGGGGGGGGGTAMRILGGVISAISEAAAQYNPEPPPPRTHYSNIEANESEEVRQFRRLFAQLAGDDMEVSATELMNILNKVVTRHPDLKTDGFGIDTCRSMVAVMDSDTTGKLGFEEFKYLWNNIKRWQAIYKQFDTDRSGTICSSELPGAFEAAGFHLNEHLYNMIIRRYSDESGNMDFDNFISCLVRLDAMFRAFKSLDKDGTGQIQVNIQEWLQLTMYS
Description: as §1, with “Our discovery of Peptide Keto-Compounds effective as Calpain Inhibitors was made through assay of the Peptide Keto-Compounds as reversible inhibitors. Various” for “Various”
as §2

[4] = tested on: Calpain II; assay: Kapp/[I] progress curve method, Calpain II (Table 1C); format: biochemical; parameters: unit not given here; conditions: Rabbit Calpain II, Suc-leu-tyr-amidomethylcoumarin
Description: The Halo-Ketone Peptides, like the substituted isocoumarins, are irreversible inhibitors of Calpain. We determined the Kapp /[I] values for various members of this class of compounds against Calpains I and II. For comparison, we also determined these values against the additional thiol proteases Papain and Cathepsin B for at least one Halo-Ketone Peptide.
We assayed Calpain I and II using Suc-leu-tyr-amidomethylcoumarin. Papain was assayed using benzoyl-arg-4-nitroanilide, and Cathepsin B (bovine) was assayed using CBZ-lys-4-nitrophenyl ester. We followed the progress curve method of Tian and Tsou, Biochemistry, 21:1028-1032 (1982), the disclosure of which is hereby incorporated by reference, to derive kinetic data. Briefly, this method makes use of the equation: [formula] where [P.infin. ] represents the concentration of product formed at a time approaching infinity, A is the Kapp in the presence of substrate (S), K is the Michaelis constant and [Y] is the concentration of the inhibitor. Since [S] and [Y] are known and V and K can be determined, Kapp can be readily determined.

[5] = target: T3, Calpain I (Homo sapiens, UniProt P07384); assay: Calpain I 14C-methylated casein proteolysis (Table 1A); format: biochemical
T3 sequence (P07384 1-714): T2 sequence (P07384 1-714)
T3 sequence (P04632 1-268 partner): T2 sequence (P04632 1-268 partner)
Description: (§3) The isocoumarins are irreversible inhibitors of Calpain. We obtained IC50 values for a variety of these Calpain Inhibitors as a kinetic analysis of these compounds.
(§4) Calpains I and II were purified by the method of (Yoshimura, et al. 1983). (Kitahara 1984) provides an alternative purification scheme. Calpain II may alternatively be purchased from Sigma Chemical Co. as "Calcium Activated Neutral Protease." In this assay, purified Calpain was incubated with ^14 C-methylated casein in the presence of various Heterocyclic Compounds and the amount of acid-soluble radioactivity released by the action of Calpain was measured.

[6] = tested on: Calpain in crude brain extracts; assay: Ca2+-stimulated spectrin proteolysis in crude brain extracts (Example 2); format: biochemical; conditions: 100 μM
How it was run: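 Brain tissue was homogenized in 10 mM Tris pH 7.4, 0.32 M sucrose, 1 mM EGTA and 1 mM DTT, and nuclei and debris were removed. Calpain activity was scored as Ca^2+-stimulated proteolysis of endogenous spectrin.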

[7] = tested on: Calpain within platelets; assay: Platelet membrane permeation assay, spectrin proteolysis (Examples 4A, 4B); format: cell-based, rat; conditions: 100 μM, A23187 1 μM
How it was run: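 Rat (Sprague-Dawley) platelets at 10^7 cells/ml in HEPES buffer pH 7.4, preincubated 5 min with inhibitor, then 5 min with 1 μM A23187 to activate calpain. Spectrin proteolysis assessed by SDS-PAGE and anti-spectrin immunoblot, quantified by densitometry.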

[8] = target: T4, Calpain II (Homo sapiens, UniProt P17655); assay: Calpain II 14C-methylated casein proteolysis (Table 1A); format: biochemical
T4 construct: from tissue; purified by a cited method
T4 sequence (P17655 1-700): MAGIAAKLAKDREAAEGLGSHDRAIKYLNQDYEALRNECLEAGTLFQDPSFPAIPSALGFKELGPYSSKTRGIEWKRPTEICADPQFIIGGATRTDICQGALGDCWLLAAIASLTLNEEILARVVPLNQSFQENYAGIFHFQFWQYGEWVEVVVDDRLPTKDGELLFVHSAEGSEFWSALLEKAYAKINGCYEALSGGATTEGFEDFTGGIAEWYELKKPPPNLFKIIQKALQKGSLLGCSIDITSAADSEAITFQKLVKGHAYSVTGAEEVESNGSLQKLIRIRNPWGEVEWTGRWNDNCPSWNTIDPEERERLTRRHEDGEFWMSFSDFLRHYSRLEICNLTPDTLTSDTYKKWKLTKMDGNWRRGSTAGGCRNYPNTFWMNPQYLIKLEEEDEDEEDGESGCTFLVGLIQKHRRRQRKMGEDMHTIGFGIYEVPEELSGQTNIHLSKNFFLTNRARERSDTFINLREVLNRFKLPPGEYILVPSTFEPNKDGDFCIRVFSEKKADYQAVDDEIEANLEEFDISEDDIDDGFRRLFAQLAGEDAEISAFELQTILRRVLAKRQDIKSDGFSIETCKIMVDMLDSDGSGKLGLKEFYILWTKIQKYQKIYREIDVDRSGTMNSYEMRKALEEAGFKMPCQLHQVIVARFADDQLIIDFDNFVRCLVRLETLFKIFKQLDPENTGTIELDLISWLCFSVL
T4 sequence (P04632 1-268 partner): T2 sequence (P04632 1-268 partner)
Description: as §3, §4

[9] = tested on: N18-RE-105 cells; assay: Glutamate-induced cell death, MTT conversion (Example 5); format: cell-based; conditions: 5 mM glutamate, inhibitor 3 μg/ml, 19 hours
Description: Stock cultures of N18-RE-105 cells were maintained in Dulbecco's modified Eagle's medium (DMEM) containing 10% fetal bovine serum (FBS) and supplemented with hypoxanthine, aminopterin and thymidine (HAT). Subconfluent cultures were split and plated into 96-well plates. Twenty-four hours after plating the cells were exposed to fresh media containing glutamate and various concentrations of Calpain inhibitors. Control cells were not treated with glutamate. Conversion of MTT was measured 19 hours later as described. Nineteen hours after the onset of exposure, cell viability was quantitated by measuring the extent to which the cells convert 3(4,5-dimethylthiazol-2-yl)-2-5-diphenyltetrazolium bromide (MTT) to a blue formazan product, which occurs in the mitochondria of living but not dead cells (Pauwels et al., 1988). A higher absorbance is indicative of greater cell viability.

SMILES | Kapp/[I] CII [4] | inhibition of spectrin proteolysis in crude brain extracts [6] | inhibition of Calpain within platelets [7] | also measured
CCOC(=O)C(=O)C(C)NC(=O)C(C)NC(=O)C(C)NC(=O)OCc1ccccc1 (racemic) [Z-Ala-Ala-DL-Ala-COOEt, Z-Ala-Ala-DL-Ala-CO2 Et] | – | – | – | Ki [1]: 1.5 µM; Ki [2]: 2.2 µM; Ki [3]: 200 µM
CC(=O)NC(C)C(=O)NC(C)C(=O)NC(C)C(=O)NC(C)C(=O)CCl (stereo not drawn) [Ac-Ala-Ala-Ala-Ala-CH2 Cl] (Ac-AAAA-CH2Cl; configuration not given here) | 1300 | – | – | –
N=C(N)SCCOc1oc(=O)c2cc(NC(=O)[C@H](N)Cc3ccccc3)ccc2c1Cl [D-Phe-NH-CiTEtOIC, 7-(D-phenylalanylamino)-4-chloro-3-(2-isothiureidoethoxy)isocoumarin] | – | significant inhibition | significant inhibition | IC50 [5]: 200 µM
N=C(N)SCCCOc1oc(=O)c2cc(NC(=O)[C@@H](N)Cc3ccccc3)ccc2c1Cl [L-Phe-NH-CiTPrOIC, 7-(L-phenylalanylamino)-4-chloro-3-(3-isothiureidopropoxy)isocoumarin] | – | significant inhibition | significant inhibition | IC50 [8]: 30 µM
N=C(N)SCCOc1oc(=O)c2cc(NC(=O)NCc3ccccc3)ccc2c1Cl [PhCH2 NHCONH-CiTEtOIC, 7-(benzylcarbamoylamino)-4-chloro-3-(2-isothiureidoethoxy)isocoumarin] | – | significant inhibition | significant inhibition | IC50 [5]: 90 µM
Cc1ccc(S(=O)(=O)N[C@@H](Cc2ccccc2)C(=O)CCl)cc1 [TPCK, Tosyl-PheCH2 Cl, reference compound] | – | – | – | blue formazan product relative to control without glutamate [9]: ≥ 100%
CC(NC(=O)OCc1ccccc1)C(=O)NC(Cc1ccccc1)C(=O)CCl (stereo not drawn) [Z-Ala-Phe-CH2 Cl] | 2400 | – | – | –
CC(C)CC(NC(=O)CNC(=O)OCc1ccccc1)C(=O)NC(C)C(=O)CCl (stereo not drawn) [Z-Gly-Leu-Ala-CH2 Cl] (Cbz-Gly-Leu-Ala-CH2Cl; configuration not given here) | 210000 | significant inhibition | – | –
CC(C)C(NC(=O)OCc1ccccc1)C(=O)NC(Cc1ccccc1)C(=O)CCl (stereo not drawn) [Z-Val-Phe-CH2 Cl] (Cbz-Val-Phe-CH2Cl; configuration not given here) | 27200 | – | – | –

— patent US5444042A, “Method of treatment of neurodegeneration with calpain inhibitors” (Cortex Pharmaceuticals, priority 1994, dated 1995)
